US20160003808A1, “MOLECULAR TARGETS AND COMPOUNDS, AND METHODS TO IDENTIFY THE SAME, USEFUL IN THE TREATMENT OF DISEASES ASSOCIATED WITH EPITHELIAL MESENCHYMAL TRANSITION” (GALAPAGOS NV, priority 2013, published 2016)

Key:
Fibronectin (FN) = experiment: EMT on target screen, FN read-out; type: cell-based, human; settings: for OT FN Screen Z-score 2: as E11, duplicate 2; for Both (shRNA is a hit again in both OT assays, Yes/No): on target validation, Table 16; for OT FN Screen Z-score 1: robust Z-score, HBEC donor Br299, duplicate 1, cut-off Z ≦ −1.25
MMP10 = experiment: EMT on target screen, MMP10 read-out; type: cell-based, human; settings: for OT MMP10 Screen Z-score 2: as E13, duplicate 2; for OT MMP10 Screen Z-score 1: robust Z-score, HBEC donor Br299, duplicate 1, cut-off Z ≦ −1.25

Substance | OT FN Screen Z-score 2 (Fibronectin (FN)) | Both (shRNA is a hit again in both OT assays, Yes/No) (Fibronectin (FN)) | OT FN Screen Z-score 1 (Fibronectin (FN)) | OT MMP10 Screen Z-score 2 (MMP10) | OT MMP10 Screen Z-score 1 (MMP10) | OT CTB assay Z-score 1 (HBEC) | OT CTB assay Z-score 2 (HBEC)
55 (AGGCTCACTTGCCTTTGGC; chemistry not given here) [compound 55] | -6.07 | yes | -4.43 | 0.18 | 0.92 | -4.29 | -8.29
56 (TGATGGTTACCGCAAGATC; chemistry not given here) [compound 56] | -3.69 | yes | -2.74 | -5.05 | -3.35 | 0.64 | -2.23
57 (CCAAACCTGTGTCAACTTC; chemistry not given here) [compound 57] | -3.69 | no | -8.59 | -1.94 | -0.60 | -1.43 | 0.38
58 (GATCCCAGCAGTTATAACA; chemistry not given here) [compound 58] | -6.55 | no | -2.47 | -3.41 | -3.06 | -4.03 | -2.02
59 (TGAAGGTCAAGAAGCCGGC; chemistry not given here) [compound 59] | -8.92 | yes | -6.20 | -1.19 | -1.71 | -6.59 | -4.59
60 (AACCTGGCCATTCAGACCC; chemistry not given here) [compound 60] | -2.96 | yes | -2.56 | -0.06 | -1.88 | -7.10 | -2.00
61 (CAATTCCCAAGGACAGGCT; chemistry not given here) [compound 61] | -1.44 | no | -1.65 | -2.31 | -2.21 | 0.59 | 0.86
62 (CAGATTCCATCTGATGGCC; chemistry not given here) [compound 62] | -5.21 | yes | -4.99 | -2.79 | -2.75 | -3.19 | -2.25
63 (GAATTTCAGAAGTACTGTG; chemistry not given here) [compound 63] | -3.76 | no | -3.62 | 2.02 | 1.53 | -2.12 | -3.06
64 (GTCCAACAGAAGTACGTGC; chemistry not given here) [compound 64] | -2.52 | no | -3.09 | 1.09 | -0.07 | 1.00 | -1.33
65 (GGCCATGATTGAGAAACTC; chemistry not given here) [compound 65] | -4.03 | no | -4.35 | -3.44 | -5.08 | 1.09 | 1.89
66 (GAAGGAGCTACTCATCTTC; chemistry not given here) [compound 66] | -4.82 | yes | -2.81 | 0.70 | -1.93 | -2.25 | -4.39
67 (CAAGAGCGATGCCTATTAC; chemistry not given here) [compound 67] | -2.65 | no | -3.19 | 0.32 | 1.39 | -3.77 | -3.83
68 (CATCAGCTTCCTGCTGGGC; chemistry not given here) [compound 68] | -5.66 | yes | -4.29 | -0.35 | -1.18 | -2.64 | -2.21
69 (GATGGAGCGCTTACACTAC; chemistry not given here) [compound 69] | -5.75 | no | -4.37 | -3.43 | -4.95 | -3.34 | -1.32
70 (GAGTTTGCCTACTCAGAGG; chemistry not given here) [compound 70] | -4.05 | no | -4.52 | -1.35 | -4.35 | 0.19 | 1.51
71 (CACGGCTCTCCTATTTGTC; chemistry not given here) [compound 71] | -1.64 | no | -1.73 | 0.95 | 0.88 | -5.58 | -4.56
72 (GAGTTGGACAGTGGAGGAC; chemistry not given here) [compound 72] | -7.31 | yes | -3.99 | -6.59 | -4.52 | -3.13 | -4.22
73 (GAAACCATCCTTTCTTGAA; chemistry not given here) [compound 73] | -2.91 | no | -2.09 | 0.06 | -0.19 | -1.31 | -2.09
74 (AGACCTGGTCTACATCGAC; chemistry not given here) [compound 74] | -4.17 | no | -2.80 | -2.12 | -2.88 | -8.40 | -6.74
75 (TCGCTAGGTATGAATAACC; chemistry not given here) [compound 75] | -2.58 | yes | -2.04 | -0.75 | 0.15 | -0.46 | -2.90
